Reference: US6562825B1, “Piperazine derivatives as modulators of chemokine receptor activity” (Astrazeneca UK Limited, priority 1999, dated 2003)
Counter-ions that a name gives are not always drawn.

melting point [°C] | SMILES
157 to 158 | O=C(NCCN1CCN(Cc2ccc(Cl)c(Cl)c2)CC1)c1ccc(Cl)cc1OCC(=O)N1CCCC1 [Example 7, 4-Chloro-N-{2-[4-(3,4-dichlorobenzyl)-1-piperazinyl]ethyl}-2-[2-oxo-2-(1-pyrrolidinyl)ethoxy]benzamide]
185 to 188 | CCN(CC)C(=O)COc1cc(Cl)ccc1C(=O)NCCN1CCN(Cc2ccc(Cl)c(Cl)c2)CC1 (as salt: hydrochloride) [Example 10, dihydrochloride]
216 to 217 | CC(c1ccc(Cl)cc1)N1CCN(CCNC(=O)c2ccc(Cl)cc2OCC(=O)N(C)C)CC1 (stereo not drawn) (as salt: hydrochloride) [Example 9, 4-Chloro-N-(2-{4-[1-(4-chlorophenyl)ethyl]-1-piperazinyl}ethyl)-2-[2-(dimethylamino)-2-oxoethoxy]benzamide hydrochloride]
220 to 222 | CN(C)CCN(C)C(=O)COc1cc(Cl)ccc1C(=O)NCCN1CCN(Cc2ccc(Cl)c(Cl)c2)CC1
120 to 122 | NC(=O)COc1cc(Cl)ccc1C(=O)NCCN1CCN(Cc2ccc(Cl)c(Cl)c2)CC1 [Example 8, 2-(2-Amino-2-oxoethoxy)-4-chloro-N-{2-[4-(3,4-dichlorobenzyl)-1-piperazinyl]ethyl}benzamide]
115 to 116 | CC(CO)NC(=O)COc1cc(Cl)ccc1C(=O)NCCN1CCN(Cc2ccc(Cl)c(Cl)c2)CC1 (stereo not drawn) [Example 4, 4-Chloro-N-{2-[4-(3,4-dichlorobenzyl)-1-piperazinyl]ethyl}-2-{2-[(2-hydroxy-1-methylethyl)amino]-2-oxoethoxy}benzamide]
228 to 229 | CN(C)C(=O)COc1cc(Cl)ccc1C(=O)NCCN1CCN(C(c2ccccc2)c2ccccc2)CC1 (as salt: hydrochloride) [Example 14, N-[2-(4-Benzhydryl-1-piperazinyl)ethyl]-4-chloro-2-[2-(dimethylamino)-2-oxoethoxy]benzamide trihydrochloride]
137 to 138 | CNC(=O)COc1cc(Cl)ccc1C(=O)NCCN1CCN(Cc2ccc(Cl)c(Cl)c2)CC1 [Example 6, 4-Chloro-N-{2-[4-(3,4-dichlorobenzyl)-1-piperazinyl]ethyl}-2-[2-(methylamino)-2-oxoethoxy]benzamide]
252 to 253 | CN(C)C(=O)COc1cc(Cl)ccc1C(=O)N(C)CCN1CCN(Cc2ccc(Cl)c(Cl)c2)CC1 (as salt: hydrochloride) [Example 13, 4-Chloro-N-{2-[4-(3,4-dichlorobenzyl)-1-piperazinyl]ethyl}-2-[2-dimethylamino)-2-oxoethoxy]-N-methylbenzamide trihydrochloride]
214 to 216 | O=C(O)CNC(=O)COc1cc(Cl)ccc1C(=O)NCCN1CCN(Cc2ccc(Cl)c(Cl)c2)CC1 [Example 12, 2-[(2-{5-Chloro-2-[({2-[4-(3,4-dichlorobenzyl)-1-piperazinyl]ethyl}amino)carbonyl]phenoxy}acetyl)amino]acetic acid]
162 to 163 | CN(C)C(=O)COc1cc(Cl)ccc1C(=O)NCCN1CCN(Cc2ccc(Cl)c(Cl)c2)CC1 (as salt: hydrochloride) [Example 3, 4-Chloro-N-{2-[4-(3,4-dichlorobenzyl)-1-piperazinyl]ethyl}-2-[2-(dimethylamino)-2-oxoethoxy]benzamide dihydrochloride]
159 to 160 | CN(C)C(=O)COc1cc(Cl)ccc1C(=O)NCCN1CCN(CCc2ccccc2)CC1 [Example 1, 4-Chloro-2-[2-(dimethylamino)-2-oxoethoxy]-N-[2-(4-phenethyl-1-piperazinyl)ethyl]benzamide]
118 to 120 | O=C(O)COc1cc(Cl)ccc1C(=O)NCCN1CCN(Cc2ccc(Cl)c(Cl)c2)CC1 [Example 2, 2-{5-Chloro-2-[({2-[4-(3,4-dichlorobenzyl)-1-piperazinyl]ethyl}amino)carbonyl]phenoxy}acetic acid]
220 to 221 | CC1CN(Cc2ccc(Cl)c(Cl)c2)C(C)CN1CCNC(=O)c1ccc(Cl)cc1OCC(=O)N(C)C (stereo not drawn) (as salt: hydrochloride) [Example 16, E-4-Chloro-N-{2-[4-(3,4-dichlorobenzyl)-2,5-dimethyl-1-piperazinyl]ethyl}-2-[2-(dimethylamino)-2-oxoethoxy]benzamide dihydrochloride]
77 to 78 | CC(C)(CO)NC(=O)COc1cc(Cl)ccc1C(=O)NCCN1CCN(Cc2ccc(Cl)c(Cl)c2)CC1 [Example 5, 4-Chloro-N-{2-[4-(3,4-dichlorobenzyl)-1-piperazinyl]ethyl}-2-{2[(2-hydroxy-1,1-dimethylethyl)amino]-2-oxoethoxy}benzamide]
